Results from publication PMC7901654, “Bioisosteric Discovery of NPA101.3, a Second-Generation RET/VEGFR2 Inhibitor Optimized for Single-Agent Polypharmacology” (Journal of Medicinal Chemistry, 2020).

How the values were obtained:
hERG = molecular target: T1, hERG (Homo sapiens, UniProt Q12809); test: hERG patch-clamp assay; format: cell-based
T1 construct: host or cells: HEK293, tetracycline-inducible hERG

human RET-negative cells = test: Cell growth curves, human RET-negative cells taken together; format: cell-based; details: read-out: IC50 dose, all human RET-negative cells
Experimental: The IC50 dose for all human RET-negative cells was >100.0 nM, confirming compound selectivity (Figure S8 and Table S4).
Nthy-ory-3-1 (10000 per well), TPC-1 (10000 per well), MZ-CRC-1 (100000 per well), TT (200000 per well), Lc-2/ad (100000 per well), BCPAP (10000 per well), 8505-C (10000 per well), PC-9 (10000 per well), A549 (10000 per well), CALU-1 (10000 per well), NIH3T3 RET/C634Y (10000 per well), and NIH3T3 HRAS/G12V (10000 per well) were seeded in six-well tissue culture plates. Cells were kept in 2% (TPC-1), 5% (Nthy-ori-3-1), or 10% (BCPAP, 8505-C, CALU-1, A549, PC-9, TT, MZ-CRC-1, and Lc-2/ad) fetal calf serum or in 2% (NIH3T3 RET/C634Y and HRAS/G12V) calf serum. Ba/F3 cells (200000 per well in 2 mL) were seeded in six-well tissue culture plates and kept in 10% fetal calf serum. The day after plating, different concentrations of the drug or vehicle were added to the medium and changed every 2–3 days. Cells were counted every day (Ba/F3), every 2 days (fibroblasts), or every 2–3 days (human cell lines). To compare cell growth, we performed an unpaired Student’s t test using the Instat software program (Graphpad Software Inc.). […] IC50 doses were calculated through a curve fitting analysis from last day of growth curves using the PRISM software program (Graphpad Software Inc.).

[1] = tested on: RET (either transfected or endogenously expressing) mutant cells; test: Growth inhibition, all RET mutant cells (summary); format: cell-based; details: range over transfected and endogenously expressing cells; read-out: IC50, growth inhibitory effect on RET mutant cells
Experimental: Finally, NPA101.3 featured efficacy already at 1 mg/kg/day in RET-driven tumors in nude mice. […] Therefore, though in a therapeutic setting toxicity may be increased by hitting multiple targets, it is feasible that the activity of the NPA101.3 against RET-driven tumors may take advantage of a synergistic combination of cell autonomous (on tumor cell growth mediated by RET inhibition) and non-cell autonomous (on blood vessel formation mediated by VEGFR2 inhibition) effects, potentiating its effect and reducing the chances of resistance development. Several TKIs with anti-RET activity are available, and some are already registered for the treatment of different types of thyroid cancers. […]
Nthy-ory-3-1 (10000 per well), TPC-1 (10000 per well), MZ-CRC-1 (100000 per well), TT (200000 per well), Lc-2/ad (100000 per well), BCPAP (10000 per well), 8505-C (10000 per well), PC-9 (10000 per well), A549 (10000 per well), CALU-1 (10000 per well), NIH3T3 RET/C634Y (10000 per well), and NIH3T3 HRAS/G12V (10000 per well) were seeded in six-well tissue culture plates. […] Cells were counted every day (Ba/F3), every 2 days (fibroblasts), or every 2–3 days (human cell lines). […] IC50 doses were calculated through a curve fitting analysis from last day of growth curves using the PRISM software program (Graphpad Software Inc.).

NIH3T3 HRAS/G12V cells = test: Phosphorylation and signalling Western blot in NIH3T3 HRAS/G12V cells; format: cell-based; details: up to a dose of 100.0 nM
Experimental: (§1) Protein lysates were prepared according to standard procedures. Briefly, cells were lysed in a buffer containing 50 mM N-2-hydroxyethylpiperazine-N′-2-ethanesulfonic acid (HEPES; pH 7.5), 1% (v/v) Triton X-100, 150 mM NaCl, 5 mM EGTA, 50 mM NaF, 20 mM sodium pyrophosphate, 1 mM sodium vanadate, 2 mM phenylmethanesulfonyl fluoride (PMSF), and 1 μg/mL aprotinin. Lysates were clarified by centrifugation at 10000g for 15 min. […] Immune complexes were detected with the enhanced chemiluminescence kit (Amersham Pharmacia Biotech, Little Chalfont, U.K.). Anti-phospho-SHC (#Y317), which recognizes SHC protein when phosphorylated on Y317, was from Upstate Biotechnology Inc. (Lake Placid, NY). Anti-SHC (H-108) was from Santa Cruz Biotechnology (Santa Cruz, CA). Anti-MAPK (9101) and anti-phospho-MAPK (9102), specific for p42/44MAPK (ERK1/2) phosphorylated on Thr202/Tyr204, antibodies were from Cell Signaling Technologies (Danvers, MA). Anti-phospho-VEGFR2/KDR (2478), specific for VEGFR2/KDR phosphorylated on Tyr1175, and anti-VEGFR2/KDR (2479) were from Cell Signaling Technologies. Anti-phospho-p70S6K (9234), specific for p70S6K phosphorylated on Thr389, and anti-p70S6K (2708) were from Cell Signaling Technologies. […]

[2] = tested on: Nthy-ori-3.1, BCPAP, 8505-C, PC-9, A549, CALU-1; test: SHC/MAPK signalling in control cell lines lacking RET oncogenes; format: cell-based, human; details: 2 h treatment
Experimental: NPA101.3 inhibited RET autophosphorylation and signaling along the SHC/MAPK pathway in human cancer cell lines endogenously expressing RET oncogenic variants, including MTC cell lines, TT (RET/C634W) and MZ-CRC-1 (RET/M918T), and PTC cell line TPC-1 (CCDC6-RET); in the lung adenocarcinoma cell line Lc-2/ad (CCDC6-RET), only RET and SHC (but not MAPK) dephosphorylation was detectable (Figure S4).
as §1, with “MA).” for “MA). Anti-phospho-VEGFR2/KDR (2478), specific for VEGFR2/KDR phosphorylated on Tyr1175, and anti-VEGFR2/KDR (2479) were from Cell Signaling Technologies. Anti-phospho-p70S6K (9234), specific for p70S6K phosphorylated on Thr389, and anti-p70S6K (2708) were from Cell Signaling Technologies.”

T1 sequence (Q12809 whole entry): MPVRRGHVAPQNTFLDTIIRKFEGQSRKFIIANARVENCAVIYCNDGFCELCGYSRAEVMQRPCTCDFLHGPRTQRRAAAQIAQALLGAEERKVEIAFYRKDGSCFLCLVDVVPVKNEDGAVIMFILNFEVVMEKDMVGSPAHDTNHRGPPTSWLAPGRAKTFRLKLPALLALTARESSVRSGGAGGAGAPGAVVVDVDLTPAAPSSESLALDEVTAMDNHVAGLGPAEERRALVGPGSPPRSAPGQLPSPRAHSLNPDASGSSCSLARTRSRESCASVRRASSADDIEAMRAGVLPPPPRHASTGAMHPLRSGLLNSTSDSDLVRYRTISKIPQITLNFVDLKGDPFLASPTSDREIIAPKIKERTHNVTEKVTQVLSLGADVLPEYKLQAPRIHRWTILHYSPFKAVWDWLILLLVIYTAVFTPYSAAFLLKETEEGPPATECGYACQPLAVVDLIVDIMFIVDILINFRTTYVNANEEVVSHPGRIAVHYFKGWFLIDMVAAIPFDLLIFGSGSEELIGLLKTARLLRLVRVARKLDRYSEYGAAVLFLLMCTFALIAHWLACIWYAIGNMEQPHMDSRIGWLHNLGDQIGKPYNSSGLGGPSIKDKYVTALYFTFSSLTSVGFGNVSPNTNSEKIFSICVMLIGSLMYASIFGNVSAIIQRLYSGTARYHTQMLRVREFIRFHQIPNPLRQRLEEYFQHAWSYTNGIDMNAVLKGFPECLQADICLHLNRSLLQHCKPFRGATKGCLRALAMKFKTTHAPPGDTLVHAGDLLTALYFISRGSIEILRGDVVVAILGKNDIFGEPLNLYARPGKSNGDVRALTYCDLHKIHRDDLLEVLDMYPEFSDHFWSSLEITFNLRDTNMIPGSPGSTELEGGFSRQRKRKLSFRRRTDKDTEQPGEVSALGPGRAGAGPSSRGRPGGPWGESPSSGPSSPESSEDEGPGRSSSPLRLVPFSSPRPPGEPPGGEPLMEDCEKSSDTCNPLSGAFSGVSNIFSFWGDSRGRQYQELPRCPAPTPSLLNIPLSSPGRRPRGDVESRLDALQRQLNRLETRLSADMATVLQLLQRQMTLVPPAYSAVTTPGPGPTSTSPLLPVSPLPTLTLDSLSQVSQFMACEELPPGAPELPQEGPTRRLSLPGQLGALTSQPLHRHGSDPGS

**Q.** `CC(C)(C)c1cc(NC(=O)Cc2ccc(-n3cnc4cc(-c5ccc(S(C)(=O)=O)cc5)ccc43)cc2)no1` [NPA101.3] was tested. Which “hERG IC50 relative to RET IC50” value (hERG; hERG 7.57 μM vs RET 1 nM) did it give?
**A.** The value was greater than 7000 fold.

**Q.** What about the inhibition at 0.1 µM (hERG; human, HEK293 cells expressing inducible hERG, 0.1 µM) of the same compound?
**A.** The inhibition at 0.1 µM was 0.41%.

**Q.** What about the inhibition at 1 µM (hERG; human, HEK293 cells expressing inducible hERG, 1 µM) of the same compound?
**A.** The inhibition at 1 µM was 14.6%.

**Q.** What about the inhibition at 10 µM (hERG; human, HEK293 cells expressing inducible hERG, 10 µM) of the same compound?
**A.** Its inhibition at 10 µM is 55.9%.

**Q.** What about the IC50 (human RET-negative cells) of the same compound?
**A.** The IC50 was greater than 100 nM.

**Q.** What about the IC50 [1] of the same compound?
**A.** Its IC50 is 0.67 to 4.17 nM.

**Q.** And the effect on phosphorylation/signalling (NIH3T3 HRAS/G12V cells)?
**A.** Its effect on phosphorylation/signalling is “virtually no effect”.

**Q.** What about the “effect on SHC/MAPK signaling” value [2] of the same compound?
**A.** Its value is “Virtually no effect”.
